Measured values taken from the supplement of paper PMC13380429.

Tests used:
HepG2 [1] = assay: drug sensitivity score (DSS) for viability; higher = more toxic; extreme values may be limits of the assay; details: 72 h
Vero E6 [2] = assay: as above; details: 72 h
Calu-3 [3] = assay: as above; details: 72 h
U2OS [4] = assay: as above; details: 72 h
Caco-2 [5] = assay: as above; details: 72 h
[6] = test system: A549-ACE2 infected with SARS-CoV-2; assay: SARS-CoV-2 infection rate relative to DMSO; higher = more infection; details: 24 h
HepG2 [7] = assay: cell viability relative to DMSO; higher = less toxic; details: 72 h
Vero E6 [8] = assay: as above; details: 72 h
Calu-3 [9] = assay: as above; details: 72 h
U2OS [10] = assay: as above; details: 72 h
Caco-2 [11] = assay: as above; details: 72 h
[12] = test system: A549-ACE2 infected with SARS-CoV-2; assay: morphology score (similarity to uninfected cells); higher = more like uninfected cells; details: 24 h
Vero E6 [13] = assay: relative viability EC50 (midpoint between 100% and the lowest measured viability); higher = less toxic; details: 72 h
Calu-3 [14] = assay: as above; details: 72 h
U2OS [15] = assay: as above; details: 72 h
[16] = test system: A549-ACE2 infected with SARS-CoV-2; assay: cell count relative to DMSO; higher = less toxic; details: 24 h
A549-ACE2 = assay: drug-induced phospholipidosis relative to tamoxifen; higher = more phospholipidosis
HepG2 [17] = assay: relative viability EC50 (midpoint between 100% and the lowest measured viability); higher = less toxic; details: 72 h

Cc1nc(Nc2ccc(F)cc2)nc(N2CCc3ccccc3C2C)c1C (configuration not stated) [revaprazan]
Details | drug sensitivity score | relative viability EC50 [µM]
Caco-2 [5] | 1.6 | –
Calu-3 [3] | 0 | –
Calu-3 [14] | – | > 10
HepG2 [1] | 1.5 | –
U2OS [4] | 0.8 | –
U2OS [15] | – | > 10
Vero E6 [2] | 0 | –
Vero E6 [13] | – | > 10

Details | SARS-CoV-2 infection rate, [6] [%] | cell count, [16] [%] | cell viability, Caco-2 [11] [%] | cell viability, Calu-3 [9] [%] | cell viability, HepG2 [7] [%] | cell viability, U2OS [10] [%] | cell viability, Vero E6 [8] [%] | morphology score, [12]
1 nM | – | – | 98.3 | 97.5 | 98.2 | 101 | 90.2 | –
10 nM | – | – | 96.7 | 102 | 106 | 100 | 106 | –
100 nM | – | – | 104 | 106 | 96.3 | 102 | 92.7 | –
0.3 µM | 91 | 105 | – | – | – | – | – | 0.16
1000 nM | – | – | 97.6 | 92 | 110 | 97.1 | 98.1 | –
3 µM | 61 | 110 | – | – | – | – | – | 0.59
10 µM | 33 | 115 | – | – | – | – | – | 0.78
10000 nM | – | – | 71.6 | 99.8 | 60.4 | 81.5 | 95.8 | –
30 µM | 19 | 99 | – | – | – | – | – | 0.77

drug-induced phospholipidosis [%], A549-ACE2
Details | 0.3 µM | 0.833333 µM | 3.33333 µM | 6.66667 µM | 10 µM | 30 µM
24 h | 0.84 | 3.77 | 8.66 | 7.71 | 18.8 | 34.5
48 h | 2.14 | 1.27 | 2.71 | 2.07 | 8.48 | 17.2
72 h | 2.77 | -0.285 | 3.45 | 3.85 | 13.8 | 30.9

CC(C)Oc1ccc(-c2nc(-c3cccc4c3CC[C@@H]4NCCO)no2)cc1C#N [ozanimod]
Details | drug sensitivity score | relative viability EC50 [µM]
Caco-2 [5] | 12.1 | –
Calu-3 [3] | 1.6 | –
HepG2 [1] | 3 | –
HepG2 [17] | – | 3.17
U2OS [4] | 1.5 | –
Vero E6 [2] | 0.6 | –
Vero E6 [13] | – | > 10

Details | SARS-CoV-2 infection rate, [6] [%] | cell count, [16] [%] | cell viability, Caco-2 [11] [%] | cell viability, Calu-3 [9] [%] | cell viability, HepG2 [7] [%] | cell viability, U2OS [10] [%] | cell viability, Vero E6 [8] [%] | morphology score, [12]
1 nM | – | – | 95.2 | 94.5 | 120 | 95.2 | 103 | –
10 nM | – | – | 75.2 | 87.2 | 101 | 105 | 96.1 | –
0.1 µM | 96 | 104 | – | – | – | – | – | 0.14
100 nM | – | – | 69.7 | 93.3 | 106 | 94.9 | 102 | –
0.3 µM | 111 | 100 | – | – | – | – | – | 0.03
1 µM | 91 | 100 | – | – | – | – | – | 0.33
1000 nM | – | – | 77.6 | 96.6 | 100 | 97.8 | 103 | –
3 µM | 44 | 114 | – | – | – | – | – | 0.77
10000 nM | – | – | 73 | 73.1 | 44.4 | 72.2 | 76.7 | –

drug-induced phospholipidosis [%], A549-ACE2
Details | 0.3 µM | 0.833333 µM | 3.33333 µM | 6.66667 µM | 10 µM
24 h | 6.09 | 18 | 72.5 | 83.5 | 92.3
48 h | -8.87 | 1.18 | 67.1 | 90.1 | 96.7
72 h | -6.97 | 0.974 | 62.1 | 108 | 122
